Patent US20120122727A1, “IN VITRO METHOD FOR PREDICTING WHETHER A COMPOUND IS GENOTOXIC IN VIVO” (priority 2009, published 2012)

Test system: primary mouse hepatocytes
Assay: Gene expression (Affymetrix Mouse Genome 430 2.0) in primary mouse hepatocytes, true vs false GTX, 24 h and 48 h
Details: 48 h; log2, corrected for vehicle control

In the case of `Nc1ccccc1C(=O)O` [ANAC, o-Anthranilic acid], the “Gene expression AK005731 average” value was −0.6498, the “Gene expression AK007854 average” value was −0.2242 and the “Gene expression AK010447 average” value was −0.1083. For the same compound, the “Gene expression AK010738 average” value was −0.06687, the “Gene expression AK014608 average” value was −0.455 and the “Gene expression AK017734 average” value was −0.5275. For the same compound, the “Gene expression AK018383 average” value was −0.0203, the “Gene expression AK019979 average” value was 0.04547 and the “Gene expression AV095209 average” value was 0.2956. The “Gene expression AV141095 average” value was −0.0311, the “Gene expression AV173869 average” value was −0.005067 and the “Gene expression AV216768 average” value was 0.4153. For the same compound, the “Gene expression AV219418 average” value was 0.1539, the “Gene expression AV221299 average” value was 0.1649 and the “Gene expression AV246296 average” value was −0.1054. The “Gene expression AV251625 average” value was 0.0423, the “Gene expression AV254764 average” value was −0.265 and the “Gene expression AV327248 average” value was 0.0856. For the same compound, the “Gene expression BB009155 average” value was −0.4697, the “Gene expression BB027848 average” value was −0.2609 and the “Gene expression BB043558 average” value was −0.188. The “Gene expression BB046347 average” value was −0.1072, the “Gene expression BB140436 average” value was −0.07237 and the “Gene expression BB204486 average” value was 0.3188. For the same compound, the “Gene expression BB223872 average” value was −0.4287, the “Gene expression BB246912 average” value was −0.1992 and the “Gene expression BB275142 average” value was −0.2874. For the same compound, the “Gene expression BB458460 average” value was 0.007967, the “Gene expression BB463610 average” value was −0.2186 and the “Gene expression BB730977 average” value was 0.7532. For the same compound, the “Gene expression BB743970 average” value was 0.1551, the “Gene expression BB770528 average” value was −0.001733 and the “Gene expression BB781615 average” value was −0.2937. For the same compound, the “Gene expression BC003284 average” value was −0.2108, the “Gene expression BC004827 average” value was 0.3756 and the “Gene expression BC005552 average” value was 0.3056. The “Gene expression BC006713 average” value was −0.1305, the “Gene expression BC010318 average” value was 0.1353 and the “Gene expression BC012247 average” value was −0.5319. For the same compound, the “Gene expression BC012955 average” value was −0.2554, the “Gene expression BC013893 average” value was −0.5709 and the “Gene expression BC017615 average” value was 0.06827. For the same compound, the “Gene expression BC019379 average” value was 0.0072, the “Gene expression BC019882 average” value was 0.1948 and the “Gene expression BC021352 average” value was 0.06563. The “Gene expression BC022148 average” value was −0.1976, the “Gene expression BC025169 average” value was −0.0788 and the “Gene expression BC026131 average” value was 0.0392. For the same compound, the “Gene expression BC027026 average” value was −0.007933, the “Gene expression BC027121 average” value was −0.1424 and the “Gene expression BC027185 average” value was −0.2381. The “Gene expression BE956581 average” value was 0.04267, the “Gene expression BF719766 average” value was 0.07637 and the “Gene expression BG065754 average” value was 0.0641. For the same compound, the “Gene expression BG066491 average” value was −0.061, the “Gene expression BG076151 average” value was −0.241 and the “Gene expression BG076333 average” value was 0.2383. The “Gene expression BG797099 average” value was −0.02097, the “Gene expression BG967046 average” value was −0.2562 and the “Gene expression BI651416 average” value was −0.1051. The “Gene expression BI966443 average” value was 0.07723, the “Gene expression BM198879 average” value was −0.1608 and the “Gene expression BM200015 average” value was 0.009533. For the same compound, the “Gene expression BM230508 average” value was −0.471, the “Gene expression BM936480 average” value was −0.04323 and the “Gene expression BQ174991 average” value was 0.4039. For the same compound, the “Gene expression L21027 average” value was 0.3857, the “Gene expression NM_007556 average” value was 0.5247 and the “Gene expression NM_007980 average” value was 0.1776. The “Gene expression NM_007987 average” value was −0.005833, the “Gene expression NM_008522 average” value was −0.06957 and the “Gene expression NM_008935 average” value was 0.3779. The “Gene expression NM_009897 average” value was 0.09963, the “Gene expression NM_011075 average” value was 0.3891 and the “Gene expression NM_011176 average” value was −0.4607. The “Gene expression NM_011316 average” value was −0.4717, the “Gene expression NM_012006 average” value was 1.5971 and the “Gene expression NM_013642 average” value was 0.3286. The “Gene expression NM_013738 average” value was −0.3378, the “Gene expression NM_013929 average” value was −0.006633 and the “Gene expression NM_018881 average” value was 0.08383. For the same compound, the “Gene expression NM_019738 average” value was −0.6326, the “Gene expression NM_030697 average” value was −0.6238 and the “Gene expression NM_053122 average” value was −0.04513. The “Gene expression NM_134147 average” value was −0.2207, the “Gene expression NM_134188 average” value was 0.2382 and the “Gene expression X62701 average” value was 0.7542.
